Assay results published in patent publication US20100130737A1, “Regulating Agent of GPR34 Receptor Function” (TAKEDA PHARMACEUTICAL COMPANY LIMITED, priority 2005, published 2010).
Counter-ions that a name gives are not always drawn.

SMILES | melting point [°C]
N[C@H](Cc1c[nH]c2ccccc12)C(=O)NC1(C(=O)O)Cc2ccc(-c3ccc(Cl)cc3)cc2C1 (stereo partly drawn) (as salt: hydrochloride) [Example B122, 5-(4-Chlorophenyl)-2-(D-tryptophylamino)indan-2-carboxylic acid hydrochloride] | 168 to 170
O=C(Cc1ccc(OCc2ccccc2)cc1)Nc1c(C(=O)O)oc2cc(-c3ccc(Cl)cc3)ccc12 [Example A23, 3-({[4-(Benzyloxy)phenyl]acetyl}amino)-6-(4-chlorophenyl)-1-benzofuran-2-carboxylic acid] | 211 to 212
O=C(Cc1ccc(OCc2ccc(F)cc2)cc1)Nc1c(C(=O)O)oc2cc(-c3ccc(Cl)cc3)ccc12 [Example A24, 6-(4-Chlorophenyl)-3-[({4-[(4-fluorobenzyl)oxy]phenyl}acetyl)amino]-1-benzofuran-2-carboxylic acid] | 205 to 206
O=C(CCc1ccc(OCc2ccccc2)cc1)Nc1c(C(=O)O)oc2cc(-c3ccc(Cl)cc3)ccc12 [Example A25, 3-({3-[4-(Benzyloxy)phenyl]propanoyl}amino)-6-(4-chlorophenyl)-1-benzofuran-2-carboxylic acid] | 209 to 210
O=C(CSc1nc2ccccc2s1)NC1(C(=O)O)Cc2ccc(-c3ccc(Cl)cc3)cc2C1 (centres unmarked) [Example B117, 2-{[(1,3-Benzothiazol-2-ylthio)acetyl]amino}-5-(4-chlorophenyl)indan-2-carboxylic acid] | 205 to 207
CC(C)(C)OC(=O)NCCC(=O)NC1(C(=O)O)Cc2ccc(-c3ccc(Cl)cc3)cc2C1 (centres unmarked) [Example B118, 2-{[3-(tert-Butoxycarbonylamino)propionyl]amino}-5-(4-chlorophenyl) indan-2-carboxylic acid] | 212 to 214
CC(C)(C)OC(=O)N[C@H](Cc1c[nH]c2ccccc12)C(=O)NC1(C(=O)O)Cc2ccc(-c3ccc(Cl)cc3)cc2C1 (stereo partly drawn) [Example B119, 2-{[N-(tert-Butoxycarbonyl)-D-tryptophyl]amino}-5-(4-chlorophenyl)indan-2-carboxylic acid] | 158
CC(C)(C)OC(=O)N[C@@H](Cc1ccccc1)C(=O)NC1(C(=O)O)Cc2ccc(-c3ccc(Cl)cc3)cc2C1 (some centres unmarked) [Example B120, 2-{[N-(tert-Butoxycarbonyl)phenylalanyl]amino}-5-(4-chlorophenyl)indan-2-carboxylic acid] | 140 to 142
O=C(CN1CCN(c2ccccc2)CC1)NC1(C(=O)O)Cc2ccc(-c3ccc(Cl)cc3)cc2C1 (centres unmarked) [Example B124, 5-(4-Chlorophenyl)-2-{[(4-phenylpiperazine-1-yl)acetyl]amino)indan-2-carboxylic acid] | 247
O=C(Cc1ccccc1OCc1ccccc1)NC1(C(=O)O)Cc2ccc(-c3ccc(Cl)cc3)cc2C1 (centres unmarked) [Example B126, 2-({[2-(Benzyloxy)phenyl]acetyl}amino)-5-(4-chlorophenyl)indan-2-carboxylic acid] | 245
O=C(Cc1ccc(Cl)cc1)NC1(C(=O)O)Cc2ccc(-c3ccc(Cl)cc3)cc2C1 (centres unmarked) [Example B127, 5-(4-Chlorophenyl)-2-{[(4-chlorophenyl)acetyl]amino}indan-2-carboxylic acid] | 251
O=C(CN1CCN(C(c2ccc(F)cc2)c2ccc(F)cc2)CC1)NC1(C(=O)O)Cc2ccc(-c3ccc(Cl)cc3)cc2C1 (centres unmarked) [Example B128, 2-[({4-[bis(4-Fluorophenyl)methyl]piperazine-1-yl)acetyl)amino]-5-(4-chlorophenyl)indan-2-carboxylic acid] | 184
Cc1c(C(=O)NC2(C(=O)O)Cc3ccc(-c4ccc(Cl)cc4)cc3C2)oc2cc(-c3ccc(Cl)cc3)ccc12 (centres unmarked) [Example B129, 5-(4-Chlorophenyl)-2-({[6-(4-chlorophenyl)-3-methyl-1-benzofuran-2-yl]carbonyl}amino)indan-2-carboxylic acid] | 257
O=C(O)C1(NS(=O)(=O)Cc2ccc(F)cc2)Cc2ccc(-c3ccc(Cl)cc3)cc2C1 (centres unmarked) [Example B130, 5-(4-Chlorophenyl)-2-{[(4-fluorobenzyl)sulfonyl]amino}indan-2-carboxylic acid] | 210 to 213
COc1ccc(-c2ccc3c(c2)CC(NC(=O)Cc2ccc(F)cc2)(C(=O)O)C3)cc1 (centres unmarked) [Example B131, 2-{[(4-Fluorophenyl)acetyl]amino}-5-(4-methoxyphenyl)indan-2-carboxylic acid] | 227
O=C(CCc1ccc(F)cc1)NC1(C(=O)O)Cc2ccc(-c3ccc(Cl)cc3)cc2C1 (centres unmarked) [Example B132, 5-(4-Chlorophenyl)-2-{[3-(4-fluorophenyl)propanoyl]amino}indan-2-carboxylic acid] | 220
O=C(NC1(C(=O)O)Cc2ccc(-c3ccc(Cl)cc3)cc2C1)c1ccc(F)cc1 (centres unmarked) [Example B133, 5-(4-Chlorophenyl)-2-[(4-fluorobenzoyl)amino]indan-2-carboxylic acid] | 251
CS(=O)(=O)c1ccc(CC(=O)NC2(C(=O)O)Cc3ccc(-c4ccc(Cl)cc4)cc3C2)cc1 (centres unmarked) [Example B135, 5-(4-Chlorophenyl)-2-({[4-(methylsulfonyl)phenyl]acetyl}amino)indan-2-carboxylic acid] | 216

Second part, the compound after the results:

melting point [°C] | SMILES
284 to 285 | Cc1nc2ccccc2n1CC(=O)NC1(C(=O)O)Cc2ccc(-c3ccc(Cl)cc3)cc2C1 (centres unmarked) (as salt: hydrochloride) [Example B159, 5-(4-Chlorophenyl)-2-{[(2-methyl-1H-benzimidazol-1-yl)acetyl]amino}indan-2-carboxylic acid hydrochloride]
288 | O=C(Cc1cccnc1)NC1(C(=O)O)Cc2ccc(-c3ccc(Cl)cc3)cc2C1 (centres unmarked) (as salt: hydrochloride) [Example B175, 5-(4-Chlorophenyl)-2-[(pyridin-3-ylacetyl)amino]indan-2-carboxylic acid hydrochloride]
147 to 149 | Cc1c(C(=O)NC(Cc2ccc(OCc3ccc(F)cc3)cc2)C(=O)O)oc2cc(-c3ccc(Cl)cc3)ccc12 (racemic) [Example C117, N-{[6-(4-Chlorophenyl)-3-methyl-1-benzofuran-2-yl]carbonyl}-O-(4-fluorobenzyl)-DL-tyrosine]
222 | O=C(Cc1ccccc1Cl)NC1(C(=O)O)Cc2ccc(-c3ccc(Cl)cc3)cc2C1 (centres unmarked) [Example B136, 5-(4-Chlorophenyl)-2-{[(2-chlorophenyl)acetyl]amino}indan-2-carboxylic acid]
210 | O=C(NC1(C(=O)O)Cc2ccc(-c3ccc(Cl)cc3)cc2C1)c1ccc2ncsc2c1 (centres unmarked) [Example B137, 2-[(1,3-Benzothiazol-6-ylcarbonyl)amino]-5-(4-chlorophenyl)indan-2-carboxylic acid]
234 | O=C(Cc1cccc(Cl)c1)NC1(C(=O)O)Cc2ccc(-c3ccc(Cl)cc3)cc2C1 (centres unmarked) [Example B138, 5-(4-Chlorophenyl)-2-{[(3-chlorophenyl)acetyl]amino}indan-2-carboxylic acid]
200 to 201 | CC(C(=O)NC1(C(=O)O)Cc2ccc(-c3ccc(Cl)cc3)cc2C1)c1ccccc1 (centres unmarked) [Example B139, 5-(4-Chlorophenyl)-2-[(2-phenylpropanoyl)amino]indan-2-carboxylic acid]
252 to 254 | O=C(Cc1ccc(NC(=O)c2ccc(F)cc2)cc1)NC1(C(=O)O)Cc2ccc(-c3ccc(Cl)cc3)cc2C1 (centres unmarked) [Example B140, 5-(4-Chlorophenyl)-2-[({4-[(4-fluorobenzoyl)amino]phenyl}acetyl)amino]indan-2-carboxylic acid]
232 to 233 | O=C(Cc1ccc(OCc2ccccc2F)cc1)NC1(C(=O)O)Cc2ccc(-c3ccc(Cl)cc3)cc2C1 (centres unmarked) [Example B141, 5-(4-Chlorophenyl)-2-[({4-[(2-fluorobenzyl)oxy]phenyl}acetyl)amino]indan-2-carboxylic acid]
209 | O=C(Cc1ccc(OCc2cccc(F)c2)cc1)NC1(C(=O)O)Cc2ccc(-c3ccc(Cl)cc3)cc2C1 (centres unmarked) [Example B142]
230 to 232 | O=C(Cc1ccc(OCc2ccc(Cl)cc2)cc1)NC1(C(=O)O)Cc2ccc(-c3ccc(Cl)cc3)cc2C1 (centres unmarked) [Example B143, 2-[({4-[(4-Chlorobenzyl)oxy]phenyl}acetyl)amino]-5-(4-chlorophenyl)indan-2-carboxylic acid]
200 to 201 | O=C(Cc1ccc(OCc2ccc(F)cc2Cl)cc1)NC1(C(=O)O)Cc2ccc(-c3ccc(Cl)cc3)cc2C1 (centres unmarked) [Example B144, 2-[({4-[(2-Chloro-4-fluorobenzyl)oxy]phenyl}acetyl)amino]-5-(4-chlorophenyl)indan-2-carboxylic acid]
237 to 238 | O=C(Cc1ccc(OCc2ccc(C(F)(F)F)cc2)cc1)NC1(C(=O)O)Cc2ccc(-c3ccc(Cl)cc3)cc2C1 (centres unmarked) [Example B145, 5-(4-Chlorophenyl)-2-{[(4-{[4-(trifluoromethyl)benzyl]oxy}phenyl)acetyl]amino)indan-2-carboxylic acid]
200 to 202 | O=C(Cc1ccc(OCc2ccoc2)cc1)NC1(C(=O)O)Cc2ccc(-c3ccc(Cl)cc3)cc2C1 (centres unmarked) [Example B146, 5-(4-Chlorophenyl)-2-({[4-(3-furylmethoxy)phenyl]acetyl}amino)indan-2-carboxylic acid]
224 to 226 | O=C(Cc1ccc(OCc2ccsc2)cc1)NC1(C(=O)O)Cc2ccc(-c3ccc(Cl)cc3)cc2C1 (centres unmarked) [Example B147, 5-(4-Chlorophenyl)-2-({[4-(3-thienylmethoxy)phenyl]acetyl}amino)indan-2-carboxylic acid]
217 to 218 | O=C(O)CNC(=O)C1(NC(=O)Cc2ccc(OCc3ccccc3)cc2)Cc2ccc(-c3ccc(Cl)cc3)cc2C1 (centres unmarked) [Example B148, N-{[2-({[4-(Benzyloxy)phenyl]acetyl)amino)-5-(4-chlorophenyl)-2,3-dihydro-1H-inden-2-yl]carbonyl}glycine]
209 to 210 | O=C(O)CNC(=O)C1(NC(=O)Cc2ccc(OCc3ccc(F)cc3)cc2)Cc2ccc(-c3ccc(Cl)cc3)cc2C1 (centres unmarked) [Example B149, N-({5-(4-Chlorophenyl)-2-[({4-[(4-fluorobenzyl)oxy]phenyl}acetyl)amino]-2,3-dihydro-1H-inden-2-yl}carbonyl)glycine]
